One assay concerns Alu element methylation. Put plainly: Alu element assay (COBRA) on peripheral blood of leukemia patients treated with decitabine. It counts as in vivo, human. Here is the method:
FIG. 6 illustrates treatment schema of patient samples. Patients were treated as part of a Phase II study of Decitabine which was given initially a dose of 90 mg/m2 twice daily for 5 consecutive days. This dose was later decreased to 50 mg/m2 twice daily due to toxicity. In this “High” Dose Study a total dose of 500-900 mg/m2 of decitabine was given over a 5 day period. Peripheral blood specimens were collected on day 0 or 1 prior to treatment, days 2-4 during treatment, and on days 5 or 6 after the completion of treatment. In the second study, a Phase I strategy of “Low” Dose Decitabine was used. This study was designed to take advantage of Decitabine's demethylating properties. Escalating doses of Decitabine of 5, 10, 15 and 20 mg/m2 were given as ten daily doses over a two week period. The total dose delivered was only 50 to 200 mg/m2 over a 14 day period. Peripheral blood specimens were collected on day 0 or 1 prior to treatment, and during days 2-14 of treatment;
Normal colon mucosa and colon cancers were collected from consenting patients. Thirty-one matched pairs of normal colon mucosa and colon tumors were used in this study. An additional 9 normal colon samples were collected from patients undergoing colectomy for non-neoplastic reasons. DNA was isolated using standard phenol-chloroform extraction methods. DNA was bisulfite treated as described above. A previously described COBRA assay that examined Alu repetitive elements was developed as a global genome methylation assessment assay (Xiong and Laird, 1997). In brief, a 25 ul PCR reaction was carried out in 60 mM Tris-HCl pH 9.5, 15 mM Ammonium Sulfate, 5.5 mM MgCl2, 10% DMSO, 1 mM dNTP mix, 1 unit of Taq polymerase, 50 pmol of the forward primer (5′-[…]-3′) (SEQ ID NO: 1), 50 pmol of the reverse primer (5′-[…]-3′) (SEQ ID NO:2), and approximately 50 ng of bisulfite treated genomic DNA. PCR cycling conditions were 96° C. for 90 seconds, 43° C. for 60 seconds, and 72° C. for 120 seconds for 27 cycles. After the PCR reaction was complete 15 μl of MboI buffer (New England Biolabs Buffer #3) were added along with 5 units of MboI Restriction Enzyme and water to a final volume of 150 ul. The restriction digestion was incubated at 37° C. overnight to assure complete digestion. The digested PCR product was then precipitated by adding 1 μl glycogen and 2 volumes of ethanol and kept at −20° C. for at least 4 hours. Samples were then centrifuged for 30 minutes, the ethanol was poured off and the pellet was air dried prior to resuspending in a small volume (5-10 μl) of water. The digested PCR products were then run on an Agilent Biosystems DNA analyzer to quantitate the cut ([…]) and uncut ([…]) DNA. Each sample was run at least twice and the data reported is an average of all runs.
The methylation sites in Alu elements are frequently mutated from C to T by spontaneous deamination, which results in a gross underestimating of the amount of 5-methylcytosine. Therefore, control genomic DNA was double treated with SssI methylase and bisulfite treated to act as a 100% methylated control. Alu methylation is reported as a percentage of this fully methylated control standard.
Patient samples were collected from patients treated as part of two clinical studies using 5-aza-2′deoxycytidine (decitabine) as a single agent. The first study treated patients with 50-90 mg/m2 of decitabine twice daily for 5 consecutive days (See FIG. 8). The second study was a phase I study which attempted to capitalize on the demethylating properties of decitabine by using a lower dose of decitabine, 5-20 mg/m^2 once daily, for a longer period of time, 10 days over a two week period (See FIG. 8). Peripheral blood samples were collected prior to, during and after treatment. Donation of blood samples for laboratory studies was voluntary and 143 samples were collected from 41 patients participating in both studies (See Table 4). […]

Assay [1] deals with LINE-1 methylation in Hct116, RKO and SW48 cell lines. Put plainly: LINE-1 methylation assay in cell lines treated with DAC (FIG. 14). It counts as cell-based, human. The settings on record: compared with untreated. Here is the method: Hct116, RKO and SW48 cell lines were treated with 5-aza-2′deoxycytidine (DAC). The genomic DNA was treated with sodium bisulfite and a non-specific PCR was performed which amplified a pool of LINE-1 repetitive elements. The PCR product was then digested with HinfI, which only cuts repetitive elements that were originally methylated. The LINE-1 PCR assays the methylation of two sites and therefore HinfI can generate five possible digestion products of 285, 247, 166, 128 and 38 bp (not seen). The digested PCR product was separated by polyacrylamide gel electrophoresis and stained with ethidium bromide. The PCR bands were quantitated and the amount of methylation is shown below each gel lane.
Methylation of the L1 promotor was investigated by COBRA assay (Xiong and Laird, 1997), and bisulfite treatment was performed as described above. A […] PCR was carried out in 60 mM Tris-HCl pH=8.8, 15 mM Ammonium Sulfate, 0.5 mM MgCl2, 1 mM dNTP mix, and 1 unit of Taq polymerase. PCR cycling conditions were 95° C. for 30 seconds, 50° C. for 30 seconds, and 72° C. for 30 seconds for 28 cycles. […] Gels were stained with ethidium bromide, imaged, and quantitated in a Bio-Rad Geldoc 2000 imager (Bio-Rad, Hercules, Calif.). […]

SMILES strings stand for the structures.

As for `Nc1ncn([C@H]2C[C@H](O)[C@@H](CO)O2)c(=O)n1` [decitabine, 5-aza-2′-deoxycytidine], in the assay on Alu element methylation (41 patients with leukemia, different doses, 4 to 7 days after treatment), the “average Alu demethylation” value is reported as 7.7%. In the assay with Alu element methylation (41 patients with leukemia, 4 to 7 days after treatment), the “maximum decrease in Alu methylation seen in a single patient” value came out at 31.5%. The compound further gave an optimal demethylating dose with Alu element methylation (DNA methylation at days 5 to 6, both studies (FIG. 9B)) of 15 to 20 mg/m2/day. Moreover, in the assay with Alu element methylation (High Dose Study (p=0.23)), the “correlation of Alu demethylation with clinical response” value is recorded as “demethylation did not correlate to response”. Also, in the assay with Alu element methylation (High Dose study, day 5 to 8), the “mean decrease of Alu element methylation” value was 10%. In addition, the “correlation of Alu demethylation with clinical response” value in the assay with Alu element methylation (Low Dose Study (p=0.04 days 5-8, p=0.02 days 9-14)) is listed as “demethylation did correlate to response”. In addition, the “decrease in Alu element methylation” value in the assay on Alu element methylation (Low dose study, day 5 to 8) is given as 5%. Moreover, the “patients showing a paradoxical increase in DNA methylation with decitabine treatment” value in the assay with Alu element methylation (both studies) turned out to be 12%. Also, in the assay on Alu element methylation (both studies, overall), the “mean decrease in Alu methylation” value was 7.7% and the “range of decrease in Alu methylation” value is on record as −10.3 to 31.5%. In the assay on Alu element methylation (both studies, 90.5% methylated prior to treatment), the “patients showing a decrease in Alu methylation with decitabine treatment” value is listed as 88%. Also, the “earliest day demethylation could be detected” value in the assay with Alu element methylation (either dosing regimen) worked out at 2 days. Besides, in the assay with Alu element methylation (low dose decitabine), the “time at which demethylation plateaus” value was 5 to 8 days. Moreover, in the assay on Alu element methylation (patients with leukemia), the “time for methylation to return to baseline after finishing treatment (in as little as)” value came to 15 days. Also, in the assay on Alu element methylation (six dose levels 5-180 mg/m2/day, day 5-6), the “dose dependence of demethylation at higher doses” value was “there did not appear to be a significant increase in demethylation beyond 20 mg/m2/day”. The “LINE-1 methylation in DAC treated cell lines” value in assay [1] is recorded as “lower degree of methylation”.
